Where two headings read alike, the source gives them in different places.
Experiments:
Type in all cases: biochemical
[1] = target: T1, FGFR1 (Homo sapiens, UniProt P11362); assay: FGFR1 kinase activity inhibition assay (LanthaScreen TR-FRET)
T1 construct: cytoplasmic domain [398-822 (terminal) amino acids]; purchased Carna 08-133
How it was run: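 Emission ratio 520 nm/495 nm by TR-FRET after stopping reaction with 10 mM EDTA and 60 min incubation at 22°C. Inhibition normalized between no-enzyme (min) and DMSO (max) controls, then fitted to a four-parameter curve (Top, Bottom, HillSlope).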

[2] = target: T2, FGFR2 (Homo sapiens, UniProt P21802); assay: FGFR2 kinase activity inhibition assay (LanthaScreen TR-FRET)
T2 construct: FGFR2's cytoplasmic domain [399-821 (terminal) amino acids]; purchased Carna 08-134
Method: FGFR1 kinase activity was measured using Invitrogen LanthaScreen™ assay technology, which utilized fluorescently-labeled peptides and terbium-labeled antibodies to directly measure an amount of the phosphorylated substrate through time-resolved fluorescence energy transfer (TR-FRET). • ① The test compounds were diluted: starting from a concentration of 1 µM, with a buffer solution in a three-fold serial dilution, the buffer solution being composed of 50 mM HEPES, 10 mM MgCl2, 0.01% TritonX-100, 0.01% BSA, 4 mM DTT (pH 7.5), and 1% DMSO; • ② 0.01 nM recombinant human GST fusion protein FGFR1's cytoplasmic domain [398-822 (terminal) amino acids] (Carna: 08-133) was formulated into a 2 × solution, mixed well with the test compounds, and incubated at 23°C for 10 minutes; • ③ 28 nM Fluorescein-Poly GT peptide substrate (Life Technologies: PV3611) and 28 µM ATP were formulated into a 2 × solution, mixed well with the test compounds and enzyme in ②, and incubated at 23°C for 30 minutes; • ④ 10 µL of 2nM Tb-PY20 antibody (Life Technologies: PV3552) and 10 mM EDTA were added to quench the kinase reaction, and incubated at 22°C for 60 minutes. • ⑤ The reaction was measured using a PerkinElmer EnVision multimode plate reader through TR-FRET dual wavelength detection. • 1. The RFU values were copied from the Envision program. • 2. The ratio of RFU 520nm/RFU 495nm was calculated. • 3. The value of the ratio was converted to a percentage inhibition value. % Inhibition = (max-data)/(max-min) × 100 [formula]
"Min" represents the ratio of the control without enzyme, "max" represents the ratio of the DMSO control, and "data" represents the ratio of the compounds in wells with different concentrations.
"Top" refers to the maximum response, "Bottom" refers to the minimum response, and "HillSlope" refers to the slope of the curve.
According to the same method as that in the FGFR1 kinase activity inhibition assay, the inhibitory activities against FGFR2, FGFR3 and FGFR4 were tested using FGFR2's cytoplasmic domain [399-821 (terminal) amino acids] (Carna: 08-134), FGFR3's cytoplasmic domain [436-806 (terminal) amino acids] (Carna: 08-135) and FGFR4's cytoplasmic domain [460-802 (terminal) amino acids] (Carna: 08-136), respectively. […]

[3] = target: T3, FGFR3 (Homo sapiens, UniProt P22607); assay: FGFR3 kinase activity inhibition assay (LanthaScreen TR-FRET); settings: for Selectivity (X) FGFR1/FGFR3: ratio of IC50 FGFR1/FGFR3, selectivity towards FGFR3; for Selectivity (X) FGFR2/FGFR3: ratio of IC50 FGFR2/FGFR3, selectivity towards FGFR3
T3 construct: FGFR3's cytoplasmic domain [436-806 (terminal) amino acids]; purchased Carna 08-135
How it was run: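 Read-out is TR-FRET, with the 520 nm/495 nm emission ratio normalised to DMSO (max) and enzyme-free (min) controls. Enzyme was the FGFR3 cytoplasmic domain, residues 436-806. EDTA (10 mM) stopped the reaction, followed by 60 min at 22 °C before reading.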

[4] = FGFR1 kinase, TR-FRET, read-out: IC50 (nM) FGFR1
[5] = FGFR2 kinase, TR-FRET, read-out: IC50 (nM) FGFR2
[6] = FGFR3 kinase, TR-FRET, read-out: IC50 (nM) FGFR3

T2 sequence (P21802 399-821): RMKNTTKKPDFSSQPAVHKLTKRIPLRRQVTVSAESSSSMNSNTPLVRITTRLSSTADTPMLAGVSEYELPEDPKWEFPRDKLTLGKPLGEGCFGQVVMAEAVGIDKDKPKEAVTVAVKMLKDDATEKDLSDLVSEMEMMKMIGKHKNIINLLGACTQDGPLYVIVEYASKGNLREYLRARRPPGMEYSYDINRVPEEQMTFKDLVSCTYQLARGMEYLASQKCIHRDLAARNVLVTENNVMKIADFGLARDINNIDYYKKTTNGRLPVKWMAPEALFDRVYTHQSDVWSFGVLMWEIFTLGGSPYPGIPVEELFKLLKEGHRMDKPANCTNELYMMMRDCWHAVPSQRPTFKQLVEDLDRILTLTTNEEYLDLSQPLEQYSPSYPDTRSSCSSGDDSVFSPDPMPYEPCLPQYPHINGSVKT
T3 sequence (P22607 436-806): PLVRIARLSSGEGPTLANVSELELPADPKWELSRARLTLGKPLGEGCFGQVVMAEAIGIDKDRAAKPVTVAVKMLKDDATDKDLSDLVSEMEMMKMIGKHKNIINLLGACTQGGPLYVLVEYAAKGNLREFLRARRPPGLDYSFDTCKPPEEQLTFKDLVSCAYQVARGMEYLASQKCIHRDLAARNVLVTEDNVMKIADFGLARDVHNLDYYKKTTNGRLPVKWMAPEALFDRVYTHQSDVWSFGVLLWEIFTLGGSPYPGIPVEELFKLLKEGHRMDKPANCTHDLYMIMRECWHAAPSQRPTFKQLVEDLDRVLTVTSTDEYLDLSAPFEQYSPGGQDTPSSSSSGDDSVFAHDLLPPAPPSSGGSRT
T1 sequence (P11362 398-822): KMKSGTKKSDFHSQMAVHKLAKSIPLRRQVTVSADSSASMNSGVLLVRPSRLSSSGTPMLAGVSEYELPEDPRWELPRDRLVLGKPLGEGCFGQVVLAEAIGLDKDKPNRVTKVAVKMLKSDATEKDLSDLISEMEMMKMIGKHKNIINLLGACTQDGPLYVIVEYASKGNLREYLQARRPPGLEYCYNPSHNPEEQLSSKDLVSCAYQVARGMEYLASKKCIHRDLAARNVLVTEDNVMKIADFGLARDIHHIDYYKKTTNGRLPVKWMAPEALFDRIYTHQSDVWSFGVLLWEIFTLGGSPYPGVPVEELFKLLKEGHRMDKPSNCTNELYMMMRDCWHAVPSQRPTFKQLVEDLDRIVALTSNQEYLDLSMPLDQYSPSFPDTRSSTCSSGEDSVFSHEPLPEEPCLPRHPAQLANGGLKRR

IC50 [1, 4] [nM]	IC50 [2, 5] [nM]	IC50 [3, 6] [nM]	Selectivity (X) FGFR1/FGFR3 [3]	Selectivity (X) FGFR2/FGFR3 [3]	Structure (SMILES)	IC50 [1] [nM]	IC50 [2] [nM]	IC50 [3] [nM]
> 100	> 100	> 100	A (A represents 1 ≤ multiple X<20)	A (A represents 1 ≤ multiple X<20)	C[C@@H](Oc1cc(C(F)(F)F)c2[nH]nc(-c3cnn(C)c3)c2c1)c1c(Cl)cncc1Cl [Example 1, (R)-5-(1-(3,5-dichloropyridin-4-yl)ethoxy)-3-(1-methyl-1H-pyrazol-4-yl)-7-(trifluoromethyl)-1H-indazole]			
10 to 100	1 to 10	1 to 10	A (A represents 1 ≤ multiple X<20)	A (A represents 1 ≤ multiple X<20)	C[C@@H](Oc1ccc2[nH]nc(-c3cnn(CCO)c3)c2n1)c1c(Cl)cncc1Cl [Example 39, (R)-2-(4-(5-(1-(3,5-dichloropyridin-4-yl)ethoxy)-1H-pyrazolo[4,3-b]pyridin-3-yl)-1H-pyrazol-1-yl)ethan-1-ol]			
10 to 100	10 to 100	10 to 100	A (A represents 1 ≤ multiple X<20)	A (A represents 1 ≤ multiple X<20)	C[C@@H](Oc1ccc2[nH]nc(-c3cnn(CC(F)F)c3)c2n1)c1c(Cl)cncc1Cl [Example 41, (R)-5-(1-(3,5-dichloropyridin-4-yl)ethoxy)-3-(1-(2,2-difluoroethyl)-1H-pyrazol-4-yl)-1H-pyrazolo[4,3-b]pyridine]			
10 to 100	10 to 100	1 to 10	A (A represents 1 ≤ multiple X<20)	A (A represents 1 ≤ multiple X<20)	C[C@@H](Oc1ccc2[nH]nc(-c3cnn(C4CC4)c3)c2n1)c1c(Cl)cncc1Cl [Example 48, (R)-3-(1-cyclopropyl-1H-pyrazol-4-yl)-5-(1-(3,5-dichloropyridin-4-yl)ethoxy)-1H-pyrazino[4,3-b]pyridine]			
> 100	> 100	10 to 100	B (B represents 20 ≤ multiple X<50)	C (C represents 50 ≤ multiple X<100)	CNCCNC(=O)c1ccc2[nH]nc(-c3cnn(C)c3)c2c1 [Example 65, 3-(1-methyl-1H-pyrazol-4-yl)-N-(2-(methylamino)ethyl)-1H-indazole-5-carboxamide]			
> 100	10 to 100	1 to 10	B (B represents 20 ≤ multiple X<50)	A (A represents 1 ≤ multiple X<20)	CC(Oc1ccc2[nH]nc(-c3cnn(C)c3)c2c1)c1cc(C#N)cc2ncccc12 (stereo not shown) [Example 159, 5-(1-((3-(1-methyl-1H-pyrazol-4-yl)-1H-indazol-5-yl)oxy)ethyl)qu inoline-7-carbonitrile]			
1 to 10		< 1	B (B represents 20 ≤ multiple X<50)		CC(Oc1ccc2[nH]nc(-c3cnn(C4CN(C(=O)C5(O)CCC5)C4)c3)c2c1)c1cccc2nccnc12 (stereo not shown) [Example 221, (1-hydroxycyclobutyl)(3-(4-(5-(1-(quinoxalin-5-yl)ethoxy)-1H-indazol-3-yl)-1H-pyrazol-1-yl)azetidin-1-yl)methanone]			
10 to 100		< 1	B (B represents 20 ≤ multiple X<50)		CC(Oc1ccc2[nH]nc(-c3cnn(C4CN(C(=O)C5(O)CC5)C4)c3)c2c1)c1cc(Cl)cc2nccnc12 (stereo not shown) [Example 222, (3-(4-(5-(1-(7-chloroquinoxalin-5-yl)ethoxy)-1H-indazol-3-yl)-1H-pyrazol-1-yl)azetidin-1-yl)(1-hydroxycyclopropyl)methanone]			
1 to 10		< 1	A (A represents 1 ≤ multiple X<20)		Cc1cc2nccnc2c(C(C)Oc2cc(F)c3[nH]nc(-c4cnn(C)c4)c3c2)n1 (stereo not shown) [Example 225, 5-(1-((7-fluoro-3-(1-methyl-1H-pyrazol-4-yl)-1H-indazol-5-yl)oxy)ethyl)-7-methylpyridino[3,4-b]pyrazine]			
> 100		1 to 10	B (B represents 20 ≤ multiple X<50)		COc1cc(OC(C)c2cc(Cl)cc3nccnc23)cc2c(-c3cnn(C)c3)n[nH]c12 (stereo not shown) [Example 226]			
10 to 100		1 to 10	B (B represents 20 ≤ multiple X<50)		CC(Oc1cc(F)c2[nH]nc(-c3cnn(C)c3)c2c1)c1cc(Cl)cc2nccnc12 (stereo not shown) [Example 228, 7-chloro-5-(1-((7-fluoro-3-(1-methyl-1H-pyrazol-4-yl)-1H-indazol-5-yl)oxy)ethyl)qu inoxaline]			
10 to 100		< 1	B (B represents 20 ≤ multiple X<50)		CC(Oc1ccc2[nH]nc(-c3cnn(C4CC(S(C)(=O)=O)C4)c3)c2c1)c1cccc2nccnc12 (stereo not shown) [Example 229, 5-(1-((3-(1-(3-(methylsulfonyl)cyclobutyl)-1H-pyrazol-4-yl)-1H-indazol-5-yl)oxy)ethyl)quinoxaline]			
1 to 10		< 1	A (A represents 1 ≤ multiple X<20)		CC(Oc1ccc2[nH]nc(-c3cnn(C)c3)c2c1)c1nc(C2CC2)cc2nccnc12 (stereo not shown) [Example 230, 7-cyclopropyl-5-(1-((3-(1-methyl-1H-pyrazol-4-yl)-1H-indazol-5-yl)oxy)ethyl)pyri dino[3,4-b]pyrazine]			
10 to 100		< 1	B (B represents 20 ≤ multiple X<50)		CC(Oc1ccc2[nH]nc(-c3cnn(C4CN(C(=O)C5CC5)C4)c3)c2c1)c1cc(Cl)cc2nccnc12 (stereo not shown) [Example 238, (3-(4-(5-(1-(7-chloroquinoxalin-5-yl)ethoxy)-1H-indazol-3-yl)-1H-pyrazol-1-yl)azetidin-1-yl)(cyclopropyl) methanone]			
10 to 100		< 1	B (B represents 20 ≤ multiple X<50)		CC(Oc1ccc2[nH]nc(-c3cnn(C4CN(C=O)C4)c3)c2c1)c1cc(Cl)cc2nccnc12 (stereo not shown) [Example 240, 3-(4-(5-(1-(7-chloroquinoxalin-5-yl)ethoxy)-1H-indazol-3-yl)-1H-pyrazol-1-yl)azetidine-1-carbaldehyde]			

Structure (SMILES)	IC50 [1, 4] [nM]	IC50 [2, 5] [nM]	IC50 [3, 6] [nM]	Selectivity (X) FGFR1/FGFR3 [3]	Selectivity (X) FGFR2/FGFR3 [3]	IC50 [1] [nM]	IC50 [2] [nM]	IC50 [3] [nM]
C[C@@H](Oc1ccc2[nH]nc(-c3cnn(C4CCN(C(=O)N(C)C)CC4)c3)c2n1)c1c(Cl)cncc1Cl [Example 36, (R)-4-(4-(5-(1-(3,5-dichloropyridin-4-yl)ethoxy)-1H-pyrazolo[4,3-b]pyridin-3-yl)-1H-pyrazol-1-yl)-N,N-dimethylpiperidine-1-carboxamide]				A (A represents 1 ≤ multiple X<20)	A (A represents 1 ≤ multiple X<20)	10 to 100	10 to 100	1 to 10
CC(C)N1CCC(n2cc(-c3n[nH]c4ccc(O[C@H](C)c5c(Cl)cncc5Cl)nc34)cn2)CC1 [Example 37, (R)-5-(1-(3,5-dichloropyridin-4-yl)ethoxy)-3-(1-(1-isopropylpiperidin-4-yl)-1H-pyrazol-4-yl)1H-pyrazolo[4,3-b]pyridine]				A (A represents 1 ≤ multiple X<20)	A (A represents 1 ≤ multiple X<20)	1 to 10	1 to 10	1 to 10
CC(Oc1ccc2[nH]nc(-c3cnn(C)c3)c2c1)c1c(C(F)F)ccc2nccnc12 (stereo not shown) [Example 232]	1 to 10		< 1	A (A represents 1 ≤ multiple X<20)				
CC(C)c1cc2nccnc2c(C(C)Oc2ccc3[nH]nc(-c4cnn(C)c4)c3c2)n1 (stereo not shown) [Example 237]	10 to 100		1 to 10	B (B represents 20 ≤ multiple X<50)				
CC(Oc1ccc2[nH]nc(-c3cnn(C4COC4)c3)c2c1)c1cc(Cl)cc2nccnc12 (stereo not shown) [Example 239]	10 to 100		1 to 10	C (C represents 50 ≤ multiple X<100)				

Reference: patent publication EP4644383A1 (Jiangsu Yahong Meditech Co., Ltd., priority 2022, dated 2024)
